Experimental data from patent US8409618B2, “Odor-reducing quinone compounds” (Kimberly-Clark Worldwide, Inc., priority 2002, dated 2013).

Key:
[1] = Urine odor and secondary odor panel ranking, dye powders in urine, 8 millimolar (Example 7); set-up: species or system human; conditions: for Average Urine Odor Ranking (with statistical corrections), Avg. Score: ignoring statistical anomalies; for Secondary Odor Ranking: scale 1 to 5, 5 extremely unpleasant, individual panelists' scores
Protocol: (§1) Qualitative odor reduction was also assessed against common odors, such as garlic and urine. Specifically, panelists assessed odorant-containing jars by carefully unscrewing, and then raising the lid of each jar in a controlled manner, such that the odor was not diluted by the ambient air. The jars were wrapped and coded to ensure that the sample identity was unknown.
The effectiveness of various dyes in reducing urine odor was compared. […] Human female urine was initially collected and pooled by a nurse on staff at Kimberly-Clark Corporation. The pooled urine was added to mason jars in 50-milliliter aliquots using an automated pipette aid. Powders of the aforementioned dyes (commercially available from Sigma-Aldrich Chemical Co., Inc. of St. Louis, Mo. and Noveon Hilton Davis, Inc. of Cincinnati, Ohio) were weighed and placed into the mason jars containing 50 milliliters of urine so that the final concentration of the dye powder was 8 millimolar (equivalent to 0.5 wt. %). The mason jars were placed in an incubator overnight at 37° C.
To aid in the assessment of the dyes, the mason jars were divided into two groups for a morning assessment, and the best of both groups were compared in an afternoon assessment (after a total of 24 hours). In addition to ranking the jars from least to most malodorous (on a scale from 1 to 7, with 7 being the most malodors), panelists were also asked to judge whether there were secondary (non-urine) odors present and, if so, the extent that the secondary odors were unpleasant (on a scale from 1 to 5, with 5 being extremely unpleasant).
In this assessment, panelists were given instructions to rank the least malodorous jar as “1” and the most malodorous jar as “10,” remaining free to rank the other jars between 2-9.

[2] = Urine odor panel ranking, dye-coated Poise pads without SN-AK (Example 8); set-up: species or system human; conditions: for Secondary Odor Ranking: scale of 1-5; for Average Urine Odor Ranking, Avg. Score / overall urine odor control performance (panel): final pooled assessment; for urine odor reduction (panel), assessment within set: overnight 37° C.; for overall urine odor control performance (panel): top-sheet coating
Protocol: as §1
Specifically, Acid Green 25, Acid Green 41, Acid Blue 129, and D&C Green No. 5 were tested. Powders of the aforementioned dyes (commercially available from Sigma-Aldrich Chemical Co., Inc. of St. Louis, Mo. and Noveon Hilton Davis, Inc. of Cincinnati, Ohio) were dissolved in water so that the concentration of the dye was 8 millimolar (equivalent to 0.5 wt. %). Samples of tissue wrap were created by cutting 9″×6″ sheets from a roll of tissue (1 ply white cellulose wrap sheet having a basis weight of 16.6 grams per square meter) were weighed, oven-dried overnight at 90° C., and weighed again the next day to calculate the amount of residual water in each wrap. The wraps were then dipped into a respective dye solution and hung to dry overnight, after which they were weighed again. The treated wraps were then rinsed in deionized water to remove any unbound dye and hung again to dry overnight. After weighing the treated wraps, they were once again oven-dried overnight at 90° C. and weighed to determine the dry add-on percentages ([…]). The add-on percentage for each sample was approximately 1.6 wt. %.
Two different sets of Poise® pads (commercially available from Kimberly-Clark Corp.) were tested. The first set of dye-coated tissue wraps (without SN-AK) was inserted around the pledgette area of the Poise® pads. The Poise® pads were cut open and the tissue wrap surrounding the pledgette carefully removed and replaced with dye-coated tissue wrap. The second set of dye-coated tissue wraps (without SN-AK) used dye coatings on the top of the pad (rather than inside). These pads were constructed by spreading the solution over the top of each pad. To prevent the superabsorbent area of the pad from soaking up the solution, the pads were cut open prior to coating and a layer of plastic wrap was placed between the top layer of the pad and the superabsorbent core. A pad that was cut open, but coated only with water on top, was used as a control. All pads were dried at room temperature overnight before placing them in mason jars for testing. For control purposes, a Poise® pad was also tested that was cut open, but retained its original tissue wrap. In addition, Serenity® Night & Day™ incontinence pads, which are commercially available from SCA Incontinence Care of Eddystone, Pa. and said to employ OdaSorb Plus™ to reduce odor, were also used for comparison.
Fresh human female urine was then pooled, and 50-milliliter aliquots were applied to the pads using a pipette. The mason jars were placed in a 37° C. incubator overnight for assessment the next day. […] Panelists were again asked to rank any secondary odors for unpleasantness on a scale of 1-5.

[3] = First Grouping, morning assessment, 8 millimolar, 7 most malodorous
[4] = First Grouping, scale 1 to 7, 7 most malodorous
[5] = Second Grouping, morning assessment, 8 millimolar, higher = more malodorous
[6] = After 24 Hours, top performers of both groupings, 1 least, 10 most malodorous
[7] = after 24 hours, top performers of both groupings
[8] = after 24 hours, top performers, 1 least, 10 most malodorous
[9] = 1st set (tissue-wrap coating), After 30 Hours
[10] = 2nd set (top-sheet coating), After 30 Hours
[11] = first set of pads (dye-coated tissue wrap around pledgette)
[12] = second set of pads (dye coating on top of pad)

Compound | Urine Odor Ranking (number of panelists): ranking 2 [1, 3] | Urine Odor Ranking (number of panelists): ranking 3 [1, 3] | Urine Odor Ranking (number of panelists): ranking 4 [1, 3] | Average Urine Odor Ranking, Avg. Score [1, 4] | secondary (non-urine) odor (panel) ([1]; first grouping) | urine odor reduction (panel) ([1]; first grouping) | Average Urine Odor Ranking, Avg. Score ([1]; Second Grouping) | Urine Odor Ranking (number of panelists): ranking 2 [1, 5] | Urine Odor Ranking (number of panelists): ranking 3 [1, 5] | Urine Odor Ranking (number of panelists): ranking 1 [1, 6] | Urine Odor Ranking (number of panelists): ranking 2 [1, 6] | Urine Odor Ranking (number of panelists): ranking 1 [1, 3] | urine odor reduction (panel) [1, 7] | Average Urine Odor Ranking, Avg. Score [1, 8] | Average Urine Odor Ranking (with statistical corrections), Avg. Score ([1]; after 24 hours, top performers) | Average Urine Odor Ranking, Avg. Score ([2]; 1st set (tissue-wrap coating)) | Average Urine Odor Ranking, Avg. Score ([2]; 2nd set (top-sheet coating)) | urine odor reduction (panel), assessment within set [2, 11] | urine odor reduction (panel), assessment within set [2, 12] | overall urine odor control performance (panel) [2] | also measured
1,2 naphthaquinone-2-sulfonic acid potassium salt | 1 number of panelists | 2 number of panelists | 1 number of panelists | 3.8 | an unpleasant secondary smell was found to be present | effectively reduced urine odor |  |  |  |  |  |  |  |  |  |  |  |  |  |  | Urine Odor Ranking (number of panelists): ranking 7 [1, 3]: 1 number of panelists
O=C1C=C(S(=O)(=O)[O-])C(=O)c2ccccc21.[K+] [1,4 Naphthaquinone, 1,4 naphthaquinone-2-sulfonic acid potassium salt] |  |  |  |  |  |  | 1.8 | 2 number of panelists | 1 number of panelists |  |  |  |  |  |  |  |  |  |  |  | secondary (non-urine) odor (panel) ([1]; Second Grouping): unpleasant secondary odor; Urine Odor Ranking (number of panelists): ranking 1 [1, 5]: 2 number of panelists
Nc1cc(S(=O)(=O)[O-])c(O)c2c1C(=O)c1c(O)c(S(=O)(=O)[O-])cc(N)c1C2=O.[Na+].[Na+] [Acid Blue 45] |  |  |  |  |  |  | 3.4 | 1 number of panelists | 2 number of panelists |  |  |  |  |  |  |  |  |  |  |  | Urine Odor Ranking (number of panelists): ranking 4 [1, 5]: 1 number of panelists; Urine Odor Ranking (number of panelists): ranking 5 [1, 5]: 1 number of panelists
Cc1ccc(Nc2ccc(Nc3ccc(C)cc3S(=O)(=O)[O-])c3c2C(=O)c2ccccc2C3=O)c(S(=O)(=O)[O-])c1.[Na+].[Na+] [Acid Green 25] | 1 number of panelists |  |  | 2.2 | not found to be unpleasant by most panelists | functioned effectively to reduce odor | 4.4 |  |  | 3 number of panelists | 1 number of panelists | 3 number of panelists | achieved the best odor reduction | 3.0 | 1.3 | 4.50 | 2.50 | performed best for the first set of pads | performed best for the second set of pads | best performer overall | Urine Odor Ranking (number of panelists): ranking 10 [1, 6]: 1 number of panelists; Urine Odor Ranking (number of panelists): ranking 6 [1, 3]: 1 number of panelists; Urine Odor Ranking (number of panelists): ranking 3 [2, 9]: 1 number of panelists; Urine Odor Ranking (number of panelists): ranking 4 [2, 9]: 1 number of panelists; Urine Odor Ranking (number of panelists): ranking 5 [2, 9]: 1 number of panelists; Urine Odor Ranking (number of panelists): ranking 6 [2, 9]: 1 number of panelists; Secondary Odor Ranking [2, 9]: 4; Urine Odor Ranking (number of panelists): ranking 1 [2, 10]: 3 number of panelists; Urine Odor Ranking (number of panelists): ranking 7 [2, 10]: 1 number of panelists
Cc1ccc(Nc2ccc(Nc3ccc(C)cc3S(=O)(=O)[O-])c3c2C(=O)c2c(O)ccc(O)c2C3=O)c(S(=O)(=O)[O-])c1.[Na+].[Na+] [Acid Green 41] | 2 number of panelists | 1 number of panelists | 1 number of panelists | 2.4 |  | functioned effectively to reduce odor |  |  |  | 1 number of panelists | 2 number of panelists | 1 number of panelists | achieved the best odor reduction | 3.0 | 2.0 | 4.50 | 2.75 | performed best for the first set of pads | performed best for the second set of pads | best performer overall, followed by Acid Green 41 | Urine Odor Ranking (number of panelists): ranking 3 [1, 6]: 1 number of panelists; Urine Odor Ranking (number of panelists): ranking 7 [1, 6]: 1 number of panelists; Secondary Odor Ranking ([1]; First Grouping): 1; Urine Odor Ranking (number of panelists): ranking 2 [2, 10]: 2 number of panelists; Urine Odor Ranking (number of panelists): ranking 3 [2, 10]: 1 number of panelists; Urine Odor Ranking (number of panelists): ranking 4 [2, 10]: 1 number of panelists; Secondary Odor Ranking [2, 10]: 1
CCN(Cc1cccc(S(=O)(=O)[O-])c1)c1ccc(C(=C2C=CC(=[N+](CC)Cc3cccc(S(=O)(=O)[O-])c3)C=C2)c2ccccc2S(=O)(=O)[O-])cc1.[Na+].[Na+] [FD&C Blue No. 1, reference compound] |  |  | 1 number of panelists | 4.8 |  |  |  |  |  |  |  |  |  |  |  |  |  |  |  |  | Urine Odor Ranking (number of panelists): ranking 5 [1, 3]: 4 number of panelists; Secondary Odor Ranking ([1]; First Grouping): 3
